Laboratory results published in patent US20240279218A1 (Hoffmann-La Roche Inc., priority 2016, published 2024).
Read-outs that look alike come from different tables or passages of the source.

Assays:
[1] = biological target: T1, h-GABA-A α5β3γ2 (Homo sapiens (Human), UniProt P18507+P31644); experiment: Two-electrode voltage clamp electrophysiology in Xenopus oocytes expressing GABAA receptors, modulation of GABA EC20 current; type: cell-based
In short: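 Values are % modulation of an EC20 GABA response, derived point by point from the ratio of compound-exposed versus control current traces (extremum taken, 100×(fold−1)). Recordings used oocytes injected with human α5, β3, γ2 mRNA, clamped at −80 mV at room temperature, at least 3 oocytes each.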

[2] = biological target: T1, h-GABA-A α5β3γ2; experiment: [3H]flumazenil competition binding assay, membranes of HEK293 cells expressing human GABAA receptors
In short: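 Membranes were prepared from HEK293 cells with transient human α5β3γ2 expression and assayed in Krebs-tris, pH 7.5. Bound radioactivity measured on filters by liquid scintillation.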

[3] = % modulation of GABA EC20 = 100*(Fold increase−1), Xenopus oocytes
[4] = Xenopus oocytes, GABA EC20, test compound at approx. 30 fold its Ki
[5] = displacement of [3H]flumazenil 0.5 nM, HEK293 cells expressing human receptors, mean of two determinations, read-out: Ki h-GABA-A α5β3γ2
[6] = reference compounds, % modulation of GABA EC20
[7] = reference compounds, GABAA α5β3γ2 overexpressing oocytes, GABA EC20
[8] = reference compounds, GABAA receptor α5β3γ2, read-out: Ki α5-human

Efficacy (GABA) % [1, 3] [%]	Fold increase h-GABA-A α5β3γ2 oocyte [1, 4]	Ki [2, 5] [nM]	Structure (SMILES)	Efficacy (GABA) % [1, 6]	Fold increase h-GABA-A α5β3γ2 oocyte [1, 7]	Ki [2, 8] [nM]
64	1.64	1	Cc1ccc(-c2noc(C)c2COc2ccc(C(=O)NC3CCOCC3)nn2)nn1 [Example 193, 6-((5-methyl-3-(6-methylpyridazin-3-yl)isoxazol-4-yl)methoxy)-N-(tetrahydropyran-4-yl)pyridazine-3-carboxamide]	–	–	–
84	1.84	13.3	Cc1ccc(-c2noc(C)c2COc2ccc(C(=O)N[C@H]3CC[C@H](OCC(F)F)CC3)nn2)cn1 [Example 194, trans-N-(4-(2,2-difluoroethoxy)cyclohexyl)-6-((5-methyl-3-(6-methylpyridin-3-yl)-1,2-oxazol-4-yl)methoxy)pyridazine-3-carboxamide]	–	–	–
78	1.78	17.3	CCO[C@H]1CC[C@H](NC(=O)c2ccc(OCc3c(-c4ccc(C)nc4)noc3C)nn2)CC1 [Example 195, N-(4-ethoxycyclohexyl)-6-((5-methyl-3-(6-methylpyridin-3-yl)-1,2-oxazol-4-yl)methoxy)pyridazine-3-carboxamide]	–	–	–
–	–	–	Cc1onc(-c2cccnc2)c1COc1ccc(C(=O)NC2CCOCC2)nn1 [RE-A, 6-((5-methyl-3-(3-pyridyl)isoxazol-4-yl)methoxy)-N-tetrahydropyran-4-yl-pyridazine-3-carboxamide, reference compound]	−3%	0.97	65
–	–	–	Cc1onc(-c2ccc(Cl)cn2)c1COc1ccc(C(=O)NC2CCOCC2)nn1 [RE-B, 6-((3-(5-chloro-2-pyridyl)-5-methyl-isoxazol-4-yl)methoxy)-N-tetrahydropyran-4-yl-pyridazine-3-carboxamide, reference compound]	+3%	1.03	0.4
–	–	–	Cc1onc(-c2ccccn2)c1COc1ccc(C(=O)NC2CCOCC2)nn1 [RO-094, reference compound]	−18%	0.82	2.9
–	–	–	Cc1onc(-c2cccnc2)c1COc1ccc(C(=O)NC2CCOCC2)cn1 [RO-159, reference compound]	−12%	0.88	28
–	–	–	Cc1ccc(-c2noc(C)c2COc2ccc(C(=O)NC3CCOCC3)cn2)cc1 [RO-251, reference compound]	−18%	0.82	1
–	–	–	Cc1onc(-c2ccccn2)c1COc1ccc(C(=O)NC2CCOCC2)cn1 [RO-272, reference compound]	−32%	0.68	1
–	–	–	Cc1onc(-c2ccc(Cl)cn2)c1COc1ccc(C(=O)NC2CCOCC2)cn1 [RO-301, reference compound]	−18%	0.82	0.2
